This passage reports KD results from article PMC9496453 (2022).

The KD is the constant that tells how readily two partners part at equilibrium.

Assay [1] relates to OTC5 (DNA, aptamer) GACGACATTCCGTTGATCTCTCCCTTTTGGGTTGGTGTCGTC
The experiment in a line: intrinsic fluorescence enhancement titration. The following applies: 50 mM NaCl, 2 mM MgCl2, 10 mM Tris HCl pH 8.3, binding lost without Mg2+.

Assay [2] has the same test system. In words: ITC. The following applies: 2 mM Mg2+; 10 mM Tris pH 8.3; 0.2 μM at pH 6.0 (10 mM MES).

`CN(C)[C@@H]1C(=O)C(C(N)=O)=C(O)[C@@]2(O)C(=O)C3=C(O)c4c(O)cccc4[C@@](C)(O)[C@H]3C[C@@H]12`: the KD in assay [1] (0.36 µM at acidic pH (printed 6.3)) turned out to be 160 nM.

Regarding `CN(C)[C@@H]1C(=O)C(C(N)=O)=C(O)[C@@]2(O)C(=O)C3=C(O)c4c(O)cccc4[C@@](C)(O)[C@H]3[C@H](O)[C@@H]12`, the KD came to 60 nM in assay [1] (0.14 µM at acidic pH (printed 6.3)) and 30 nM in assay [2].

In the case of `C[C@H]1c2cccc(O)c2C(=O)C2=C(O)[C@]3(O)C(=O)C(C(N)=O)=C(O)[C@@H](N(C)C)[C@@H]3[C@@H](O)[C@@H]21`, in assay [1] (0.39 µM at pH 6.0), the KD is 240 nM.
